Assay results reported in PMC11470957, “Principles of paralog-specific targeted protein degradation engaging the C-degron E3 KLHDC2” (Nature Communications, 2024).
Where “and” joins values, the source holds several entries; their conditions need not be identical. Identical values can stand only once. Like-named read-outs stand apart in the source and are kept apart here. Each block holds one molecule with its values, some of them ahead of it.

Legend:
[1] = test system: SKBR3, AU565, RD, SKES1, A673 cells; experiment: Cell Titer-Glo Luminescent Cell Viability assay; conditions: read-out: IC50, cell viability; five cell lines (SKBR3, AU565, RD, SKES1, A673), after 24 hours
KLHDC2^SBD [2] = target: T1, KLHDC2^SBD (Homo sapiens, UniProt Q9Y2U9); experiment: Thermal shift assay (Sypro Orange) probing stabilization of KLHDC2^SBD; type: binding; set-up: KLHDC2^SBD (15-361) and its Avi-tagged counterpart were expressed in E. coli Rosetta2 cells; 6XHis-MBP (N, cleaved yes); made in house; host or cells: E. coli Rosetta2
T1 sequence (Q9Y2U9 15-361): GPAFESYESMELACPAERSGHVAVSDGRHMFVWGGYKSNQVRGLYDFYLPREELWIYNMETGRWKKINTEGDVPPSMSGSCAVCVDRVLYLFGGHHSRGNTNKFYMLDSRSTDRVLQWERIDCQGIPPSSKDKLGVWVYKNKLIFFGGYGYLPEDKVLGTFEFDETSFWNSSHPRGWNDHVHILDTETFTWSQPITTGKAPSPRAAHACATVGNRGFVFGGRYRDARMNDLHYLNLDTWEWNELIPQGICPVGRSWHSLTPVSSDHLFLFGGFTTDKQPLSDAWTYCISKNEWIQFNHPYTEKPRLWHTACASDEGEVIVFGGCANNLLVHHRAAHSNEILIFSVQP
Description: In an attempt to identify non-peptide ligands that target KLHDC2’s substrate binding domain (SBD), we developed a thermal shift assay probing for stabilization of KLHDC2^SBD upon ligand addition. […] We utilized the thermal shift assay to screen ~ 9,000 molecules from a diverse collection of lead-like molecules (Figs. 1b, S1a, Supplementary Table 1).
Experimental compounds (200 nl each) were dispensed into a 384-well PCR plate using the Labcyte ECHO 655 T. The assay solution, comprising 0.5 μM KLHDC2, 25 mM HEPES, 200 mM NaCl, and 5% Sypro Orange at pH 7.5, was added to achieve a final volume of 20 μl. Negative control wells contained only DMSO, while positive control wells contained a di-Gly substrate peptide derived from SELK. Fluorescence measurements of Sypro Orange in each sample were taken using a Quantstudio 5 or Quantstudio 6, with temperatures ranging from 23 to 75 °C at a rate of 0.05 °C/s. Data analysis involved calculating thermal stability using the Boltzmann and first derivative minima equations in Thermo Scientific Protein Thermal Shift software v1.4. The resulting data were uploaded to CDD Vault for further analysis.
The 8892-compound lead-like one library was screened for its ability to stabilize KLHDC2 using a sypro orange-based thermal stability single-point assay.
Supplementary Ta b l e 1. Small molecule screening data
Category Parameter Description
Assay Ty p e o f assay Thermal Stability Screen
Primary measurement RFU of Sypro Orange
Key reagents Sypro Orange
Assay protocol Experimental compounds (200nl each) were dispensed into […]
a 384-well PCR plate using the Labcyte ECHO 655T. The […]
assay solution, comprising 0.5µM KLHDC2, 25mM HEPES,
200mM NaCl, and 5% Sypro Orange at pH 7.5, was added […]
to achieve a final volume of 20μl. Negative control wells […]
contained only DMSO, while positive control wells […]
contained peptide sub2. Fluorescence measurements of
Sypro Orange in each sample were taken using a
Quantstudio 5 or Quantstudio 6, with temperatures ranging […]
from 23 to 75°C at a rate of 0.05°C/second. Data analysis […]
involved calculating thermal stability using the Boltzmann […]
and first derivative minima equations in Thermo Scientific
Protein Thermal Shift software v1.4. The resulting data […]
were uploaded to CDD Vault for further analysis.
Library Library size 10041
Library composition The library was curated from compounds cherry picked […]
from St. Jude’s collection, representative of 80% of the […]
entire collection based on scaffold diversity (2D Molecular […]
fingerprinting based clustering) and structural properties: […]
lipophilicity (cLogP<3), size (MW 200-300 Da), and no […]
structural alerts (PAINS).
Source The compound collection was curated from multiple […]
vendors and stored on-site.
Screen Format The assay was completed in 26 384 well plates
Concentration(s) tested Compounds were tested at 100µM, and then a 16-point […]
serial dilution was performed on select compounds.
Plate controls DMSO as negative control and peptide sub2 as positive […]
Reagent/ compound dispensing system Multidrop Combi and Labcyte ECHO 655T […]
Detection instrument and software Quant Studio 5 and Quant Studio 6 and Thermo Scientific […]
Protein Thermal Shift software v1.4
Correction factors No correction factors were applied.

KLHDC2^SBD [3] = target: T1, KLHDC2^SBD; experiment: Surface plasmon resonance binding to KLHDC2; set-up: KLHDC2^SBD (15-361) and its Avi-tagged counterpart were expressed in E. coli Rosetta2 cells; 6XHis-MBP (N, cleaved yes); made in house; host or cells: E. coli Rosetta2
Description: Surface plasmon resonance (SPR) was utilized to determine kinetic parameters and binding affinity of KLHDC2 substrates using a PioneerFE (Sartorius). Experiments were carried out in 20 mM Tris, 200 mM NaCl, 1 mM TCEP, 0.01% Brij35, and 1% DMSO at pH 7.4 as a running buffer with a 100 µL/min flow rate at 20 °C.
The 10xHis-KLHDC2 was immobilized onto a Ni-NTA-coated biosensor chip (HisCap). The chip surface was conditioned using 10 mM HCl, 50 mM NaOH, and 0.1% SDS (50 µL at 100 µL/min) twice, followed by a 100 mM Tris buffer wash (100 µL at 100 µL/min). The surface was then activated using an injection of 0.5 M EDTA (125 µL at 25 µL/min) followed by an injection of 5 mM NiCl2 (125 µL at 25 µL/min). […] Channel 2 was treated identically to channel 3 except for protein loading to be used as a reference channel. […] 100% of the loop was injected with a 300 s dissociation time. All samples were run in triplicate. Data was analyzed using Qdat software and fit to a simple 1-site model.
The SPR experiments were performed to determine the binding affinities (KD) of KLHDC2-SJ46411 and KLHDC2-SJ46418 complexes. All the experiments were performed using a Biacore 1S+ instrument. […] The running buffer consisted of 20 mM Tris pH 7.5, 200 mM NaCl, 1 mM TCEP, 0.01% Brij35, and 4% DMSO. […] In brief, before the immobilization, the sensor chip surface was conditioned by injecting a mixture of (3:1 v/v) 8 M guanidine hydrochloride and 1 M NaOH at a flow rate of 5 μL/min for 2 min for two times. Then, running buffer was injected at a 30 μl/min flow rate for 1 min 3 times. Next, the Biotin CAPture reagent was injected at a flow rate of 2 μl/min for 5 min. Then, biotinylated KLHDC2 was only injected onto the active channel (channel 2).
Sample preparation was carried out precisely the same as SJ46411. All experiments were performed using a multi-cycle analysis method with a 30 μl/min flow rate, 120 S association, and 240 s dissociation time. All data were reference subtracted and corrected for DMSO mismatch. The sensorgrams were analyzed using Biacore insight evaluation software, and KD was determined using the 1:1 steady-state affinity fitting. Finally, all the analyzed data was replotted using GraphPad Prizm 10 software.

KLHDC2^SBD [4] = target: T1, KLHDC2^SBD; experiment: TR-FRET assay, competition with di-Gly degron peptide binding to KLHDC2^SBD; set-up: KLHDC2^SBD (15-361) and its Avi-tagged counterpart were expressed in E. coli Rosetta2 cells; 6XHis-MBP (N, cleaved yes); made in house; host or cells: E. coli Rosetta2
Description: TR-FRET assays were carried out in black 384-well microtiter plates at a final volume of 20 μL per well. An assay cocktail was prepared as a mixture of 50 nM Biotin-KLHDC2 SBD, 20 nM AlexaFluor488-RIC8B peptide, 2.5 nM Tb-Streptavidin (ThermoFisher) in assay buffer (25 mM HEPES, 100 mM NaCl, 0.1% Triton X-100, 0.5 mM DTT, pH 7.5). The assay cocktail was incubated for thirty-minutes at room temperature and 20 μl distributed to assay plates. Molecules were distributed to the plates at the indicated concentration and the assay mixture was incubated for 1 h at room temperature prior to measuring the TR-FRET signal with a PHERAstar FS plate reader (BMG Labtech) equipped with modules for excitation at 337 nm and emissions at 490 and 520 nm. The integration start was set to 100 µs and the integration time to 200 µs. The number of flashes was fixed at 100. The ratio of 520/490 was used as TR-FRET signal in calculations. Assay endpoints were normalized to 100% (buffer only) and used for curve fitting in Prism.

KLHDC2^SBD / BRD3^BD2 = KLHDC2^SBD / BRD3^BD2 (Homo sapiens, UniProt Q15059+Q9Y2U9); experiment: ITC, ternary complex KLHDC2^SBD with PROTAC-BRD3^BD2
KLHDC2^SBD / BRD3^BD2, sequence (Q15059 306-416, one chain of several): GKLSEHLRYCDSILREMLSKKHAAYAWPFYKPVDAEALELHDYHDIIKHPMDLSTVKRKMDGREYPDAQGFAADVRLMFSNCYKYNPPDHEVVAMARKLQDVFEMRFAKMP

KLHDC2^SBD [5] = target: T1, KLHDC2^SBD; experiment: ITC, binary binding of small molecule to KLHDC2^SBD
[6] = test system: BD2 domain from BRD2, BRD3, or BRD4 / neddylated CRL2^KLHDC2; experiment: Pulse-chase PROTAC-dependent ubiquitylation of BRD BD2 domains by neddylated CRL2^KLHDC2; conditions: neddylated CRL2^KLHDC2 not subject to autoinhibition; Fig 3e
neddylated CRL2^KLHDC2 = neddylated CRL2^KLHDC2 (Homo sapiens, UniProt Q9Y2U9, G405K/S406K); experiment: biochemical
[7] = target: neddylated CRL2^KLHDC2 / BRD3^BD2 (Homo sapiens, UniProt Q15059+Q9Y2U9, Q9Y2U9:G405K/Q9Y2U9:S406K); experiment: biochemical
[8] = Solubility as observed in the ITC sample cell; conditions: at 40 μM in the ITC sample cell
[9] = inhibition of KLHDC2^SBD binding to a di-Gly degron peptide, read-out: TR-FRET IC50
[10] = cell: PROTAC-BRD3^BD2, syringe: KLHDC2^SBD
[11] = cell: ligand, syringe: KLHDC2^SBD

Structure (SMILES): Cc1sc2c(c1C)C(c1ccc(Cl)cc1)=N[C@@H](CC(=O)OC(C)(C)C)c1nnc(C)n1-2 [JQ1, reference compound]
- IC50 [1]: ~0.3 µM

- ΔTm at 50 µM (KLHDC2^SBD [2]; read-out: ΔTm at 50 µM): 2.3 ± 0.07 °C
- Kd (KLHDC2^SBD [3]; read-out: SPR Kd): 19 ± 0.06 µM
- IC50 (KLHDC2^SBD [4]; [9]): 46.7 ± 13.5 µM
Structure (SMILES): O=C(O)CNC(=O)Cc1csc(-c2cccc(Cl)c2)n1 [SJ10267]

- ΔTm at 50 µM (KLHDC2^SBD [2]; read-out: ΔTm at 50 µM): 3.3 ± 0.2 °C
- Kd (KLHDC2^SBD [3]; read-out: SPR Kd): 14.52 ± 0.01 µM
- IC50 (KLHDC2^SBD [4]; [9]): 30.2 ± 3.4 µM
Structure (SMILES): COc1ccc(-c2nc(CC(=O)NCC(=O)O)cs2)c(Cl)c1 [SJ10272]

- ΔTm at 50 µM (KLHDC2^SBD [2]; read-out: ΔTm at 50 µM): 2.5 ± 0.2 °C
- Kd (KLHDC2^SBD [3]; read-out: SPR Kd): 25.47 ± 0.05 µM
- IC50 (KLHDC2^SBD [4]; [9]): 40.6 ± 7.6 µM
Structure (SMILES): O=C(O)CNC(=O)Cc1csc(-c2ccc(O)cc2Cl)n1 [SJ10280]

- ΔTm at 50 µM (KLHDC2^SBD [2]; 50 µM compound): 0.9 ± 0.2 °C
- Kd (KLHDC2^SBD [3]; SPR Kd): > 2000 µM
- IC50 (KLHDC2^SBD [4]): 55.3 ± 25.2 µM
Structure (SMILES): COCn1cc(-c2nc(CC(=O)NCC(=O)O)cs2)ccc1=O [SJ15396]

- ΔTm at 50 µM (KLHDC2^SBD [2]; read-out: ΔTm at 50 µM): 2.8 ± 0.3 °C
- Kd (KLHDC2^SBD [3]; read-out: SPR Kd): 26.6 ± 0.1 µM
- IC50 (KLHDC2^SBD [4]; [9]): 72.8 ± 8.6 µM
Structure (SMILES): COCOc1ccc(-c2nc(CC(=O)NCC(=O)O)cs2)cc1F [SJ45737]

- cooperativity α (KLHDC2^SBD / BRD3^BD2; BRD3^BD2, KLHDC2^SBD): 2.9
- ITC -TΔS (ternary) (KLHDC2^SBD / BRD3^BD2; [10]): -5.26 +/- 0.18 kcal/mol-1
- ITC N (ternary) (KLHDC2^SBD / BRD3^BD2; [10]): 0.4 and ~ 0.5
- ITC ΔG (ternary) (KLHDC2^SBD / BRD3^BD2; [10]): -9.33 +/- 0.05 kcal/mol-1
- Kd (KLHDC2^SBD [5]; ITC Kd, cell: ligand, syringe: KLHDC2^SBD): 0.74 µM and 0.737 µM
- Kd (KLHDC2^SBD [5]; Kd, Rep1/Rep2, ITC source data Fig4a, syringe KLHDC2, cell PROTAC alone): 0.69 µM and 0.789 µM
- ITC -TΔS (KLHDC2^SBD [5]; [11]): -5.26 +/- 0.22 kcal/mol-1
- ITC stoichiometry of binding N (KLHDC2^SBD [5]; [11]): 0.4 and ~ 0.5
- ITC ΔG (KLHDC2^SBD [5]; [11]): -8.61 +/- 0.04 kcal/mol-1
- ITC ΔH (KLHDC2^SBD [5]; [11]): -3.35 +/- 0.11 kcal/mol-1
- IC50 (neddylated CRL2^KLHDC2): 15.3 µM
- IC50 [7]: 2.2 µM
- solubility [8]: solubility issues
Structure (SMILES): Cc1sc2c(c1C)C(c1ccc(Cl)cc1)=N[C@@H](CC(=O)N1CCN(CCOc3ccc4ccc(-c5nc(CC(=O)NCC(=O)O)cs5)cc4c3)CC1)c1nnc(C)n1-2 [SJ46423]
- polyubiquitylation of the BD2 domain from BRD2, BRD3, or BRD4 [6]: able to promote polyubiquitylation
